Key:
[1] = tested on: MCF-7 (human breast cancer cell); assay: In vitro cell anti-cancer test under illumination (MTT); assay type: cell-based; details: MTT cell survival rate; for killing effect on the cells under illumination: MCF-7, 30 minutes incubation, red light 660 nanometers; for killing effect on the cells without illumination: MCF-7, no illumination
Method: MCF-7 (human breast cancer cell) was planted in 96-well culture plates at a density of 5000 cells per well and cultured in a cell incubator for 24 hours (37° C., 5% CO2). The compound F-1 synthesized in Embodiment 1 was used, and F-1-DMSO solution was added into DMEM containing 10% fetal calf serum to prepare solutions with different concentrations, and the prepared solutions were added to the 96-well culture plates and placed in a cell incubator to incubate for 30 minutes, and then irradiated for a certain period by red light with a wavelength of 660 nanometers. After irradiation, 96 empty plates were placed in a cell incubator and continuously incubated for 12 hours. Then, 100 μl of culture medium containing 5 mg/ml MTT was added to each well, and incubated in a cell incubator for 4 hours. The culture solutions in the well of the plates were removed, 100 µl of DMSO was added to each well to fully dissolve MTT oxidation products, and then the absorbance of each well at 570 nanometers and 630 nanometers were measured with a microplate reader, and a cell survival rate was calculated.
MCF-7 (human breast cancer cell) was planted in 96-well culture plates at a density of 5000 cells per well and cultured in a cell incubator for 24 hours (37° C., 5% CO2). The compound F-2 synthesized in Embodiment 6 was used, and F-2-DMSO solution was added into DMEM containing 10% fetal calf serum to prepare solutions with different concentrations, and the prepared solutions were added to the 96-well culture plates and placed in the cell incubator to incubate for 30 minutes, and then irradiated for a certain period by red light with a wavelength of 660 nanometers. After irradiation, 96 empty plates were placed in a cell incubator and continuously incubated for 12 hours. Then, 100 μl of culture medium containing 5 mg/ml MTT was added to each well, and incubated in a cell incubator for 4 hours. The culture solutions in the well of the plates were removed, 100 µl of DMSO was added to each well to fully dissolve MTT oxidation products, and then the absorbance of each well at 570 nanometers and 630 nanometers were measured with a microplate reader, and a cell survival rate was calculated.
MCF-7 (human breast cancer cell) was planted in 96-well culture plates at a density of 5000 cells per well and cultured in a cell incubator for 24 hours (37° C., 5% CO2). The compound F-3 synthesized in Embodiment 11 was used, and […] was added into DMEM containing 10% fetal calf serum to prepare solutions with different concentrations, and the prepared solutions were added to the 96-well culture plates and placed in the cell incubator to incubate for 30 minutes, and then irradiated for a certain period by red light with a wavelength of 660 nanometers. After irradiation, 96 empty plates were placed in a cell incubator and continuously incubated for 12 hours. Then, 100 μl of culture medium containing 5 mg/ml MTT was added to each well, and incubated in a cell incubator for 4 hours. The culture solutions in the well of the plates were removed, 100 μl of DMSO was added to each well to fully dissolve MTT oxidation products, and then the absorbance of each well at 570 nanometers and 630 nanometers were measured with a microplate reader, and a cell survival rate was calculated.

[2] = Spectral test experiment (UV-vis spectrophotometer and fluorescence spectrometer); assay type: physicochemical; details: in dichloromethane
Method: The compound F-1 synthesized in Embodiment 1 was used, and F-1-DMSO solution was added into dichloromethane and mixed evenly. Spectral properties of the compound F-1 were tested by a UV-vis spectrophotometer and a fluorescence spectrometer. The results are shown in FIG. 2, wherein the F-1 molecules have the maximum absorption and the maximum emission at 680 nanometers and 700 nanometers in the dichloromethane respectively.
The compound F-2 synthesized in Embodiment 6 was used, and F-2-DMSO solution was added into dichloromethane and mixed evenly. Spectral properties of the […] were tested by a UV-vis spectrophotometer and a fluorescence spectrometer. The results are shown in FIG. 6, wherein the F-2 molecules have the maximum absorption and the maximum emission at 686 nanometers and 712 nanometers in the dichloromethane are respectively.
The compound F-3 synthesized in Embodiment 11 was used, and F-3-DMSO solution was added into dichloromethane and mixed evenly. Spectral properties of the […] were tested by a UV-vis spectrophotometer and a fluorescence spectrometer. The results are shown in FIG. 10, wherein the F-3 molecules have the maximum absorption and the maximum emission at 697 nanometers and 740 nanometers in the dichloromethane.

[3] = Self-assembled nano drug-delivery system, scanning electron microscope; assay type: physicochemical; details: self-assembled in PBS or ultrapure water
Method: The compound F-1 synthesized in Embodiment 1 was used, and a proper amount of F-1-DMSO solution was added into a phosphate buffer (PBS) or ultrapure water as required. After shaking the mixture evenly, the compound F-1 could be self-assembled in the PBS or ultrapure water to form a nanoparticle system. It can be seen from FIG. 14 that the nanoparticles formed by the self-assembly of the compound F-1 in the nano-system are about 200 nanometers in size, regular in shape and uniform in size, and have excellent dispersion properties.

Row | Compound | killing effect on the cells under illumination [1] | killing effect on the cells without illumination [1] | maximum absorption [2] | maximum emission [2] | size of nanoparticles formed by self-assembly [3]
1 | CC/N=c1/cc2sc3c4c5c(cc3nc-2c2ccccc12)CCCN5CCC4 [Compound F-1] | obvious killing effect on the cells | very small killing effect on the cells without illumination, and has almost no toxicity | 680 nanometers | 700 nanometers | about 200 nanometers
2 | CC/N=c1/cc2[se]c3c4c5c(cc3nc-2c2ccccc12)CCCN5CCC4 [Compound F-2] | obvious killing effect on the cells at low energy density of illumination | very small killing effect on the cells without illumination, and has almost no toxicity | 686 nanometers | 712 nanometers | –
3 | CC/N=c1/cc2[te]c3c4c5c(cc3nc-2c2ccccc12)CCCN5CCC4 [Compound F-3] | obvious killing effect on the cells at low energy density of illumination | a certain killing effect on the cells without illumination | 697 nanometers | 740 nanometers | –

— US11639360B2, “Oxazine compound and application thereof” (DALIAN UNIVERSITY OF TECHNOLOGY, priority 2018, dated 2023)
